Source: PubChem BioAssay (NCI)
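The concentration for 50% growth inhibition is given as GI50. TGI denotes the concentration required for complete inhibition of growth.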

Tests used:
Assay in all cases: growth of human tumour cells (NCI), 384-well format
NCI-H522 lung = tested on: NCI-H522 lung
MOLT-4 leukemia = tested on: MOLT-4 leukemia
SF-539 CNS = tested on: SF-539 CNS
PC-3 prostate = tested on: PC-3 prostate
NCI-H460 NSCLC = tested on: NCI-H460 NSCLC
SNB-75 CNS = tested on: SNB-75 CNS
MDA-MB-468 breast = tested on: MDA-MB-468 breast
EKVX NSCLC = tested on: EKVX NSCLC
MDA-MB-435 melanoma = tested on: MDA-MB-435 melanoma
SNB-19 CNS = tested on: SNB-19 CNS
HOP-92 NSCLC = tested on: HOP-92 NSCLC
SW-620 colon = tested on: SW-620 colon
UACC-62 melanoma = tested on: UACC-62 melanoma
HCT-116 colon = tested on: HCT-116 colon
SN12C renal = tested on: SN12C renal
CCRF-CEM leukemia = tested on: CCRF-CEM leukemia
SK-MEL-28 melanoma = tested on: SK-MEL-28 melanoma
MCF7 breast = tested on: MCF7 breast
HOP-62 NSCLC = tested on: HOP-62 NSCLC
OVCAR-4 ovarian = tested on: OVCAR-4 ovarian
SF-268 CNS = tested on: SF-268 CNS
K-562 leukemia = tested on: K-562 leukemia
NCI-H23 lung = tested on: NCI-H23 lung
IGROV1 ovarian = tested on: IGROV1 ovarian
786-0 renal = tested on: 786-0 renal
LOX IMVI melanoma = tested on: LOX IMVI melanoma
NCI/ADR-RES ovarian = tested on: NCI/ADR-RES ovarian
HS 578T breast = tested on: HS 578T breast
BT-549 breast = tested on: BT-549 breast
NCI-H322M lung = tested on: NCI-H322M lung
HCC-2998 colon = tested on: HCC-2998 colon
HL-60(TB) leukemia = tested on: HL-60(TB) leukemia
MDA-MB-231 breast = tested on: MDA-MB-231 breast
OVCAR-5 ovarian = tested on: OVCAR-5 ovarian
COLO 205 colon = tested on: COLO 205 colon
ACHN renal = tested on: ACHN renal
CAKI-1 renal = tested on: CAKI-1 renal
RPMI-8226 leukemia = tested on: RPMI-8226 leukemia
T-47D breast = tested on: T-47D breast
SF-295 CNS = tested on: SF-295 CNS
KM12 colon = tested on: KM12 colon
U251 glioblastoma = tested on: U251 glioblastoma
HCT-15 colon = tested on: HCT-15 colon
RXF 393 renal = tested on: RXF 393 renal
SR leukemia = tested on: SR leukemia
UACC-257 melanoma = tested on: UACC-257 melanoma
SK-OV-3 ovarian = tested on: SK-OV-3 ovarian
OVCAR-8 ovarian = tested on: OVCAR-8 ovarian
SK-MEL-5 melanoma = tested on: SK-MEL-5 melanoma
TK-10 renal = tested on: TK-10 renal
DU-145 prostate = tested on: DU-145 prostate
NCI-H226 lung = tested on: NCI-H226 lung
M14 melanoma = tested on: M14 melanoma
A498 renal = tested on: A498 renal
A549 NSCLC = tested on: A549 NSCLC
HT29 colon = tested on: HT29 colon
OVCAR-3 ovarian = tested on: OVCAR-3 ovarian
SK-MEL-2 melanoma = tested on: SK-MEL-2 melanoma
MALME-3M melanoma = tested on: MALME-3M melanoma

In the case of `COc1ccc(S(=O)(=O)N2CCNCC2)cc1OC`, the GI50 (NCI-H522 lung) is reported as over 100 µM, the TGI (NCI-H522 lung) is reported as over 100 µM and the GI50 (MOLT-4 leukemia) is reported as over 100 µM. For the same compound, the TGI (MOLT-4 leukemia) was over 100 µM, the GI50 (SF-539 CNS) was over 100 µM and the TGI (SF-539 CNS) was over 100 µM. For the same compound, the GI50 (PC-3 prostate) was over 100 µM, the TGI (PC-3 prostate) was over 100 µM and the GI50 (NCI-H460 NSCLC) was over 100 µM. For the same compound, the TGI (NCI-H460 NSCLC) was over 100 µM, the GI50 (SNB-75 CNS) was over 100 µM and the TGI (SNB-75 CNS) was over 100 µM. For the same compound, the GI50 (MDA-MB-468 breast) was over 100 µM, the TGI (MDA-MB-468 breast) was over 100 µM and the GI50 (EKVX NSCLC) was over 100 µM. For the same compound, the TGI (EKVX NSCLC) was over 100 µM, the GI50 (MDA-MB-435 melanoma) was over 100 µM and the TGI (MDA-MB-435 melanoma) was over 100 µM. It also gave a GI50 (SNB-19 CNS) of over 100 µM, a TGI (SNB-19 CNS) of over 100 µM and a GI50 (HOP-92 NSCLC) of over 100 µM. For the same compound, the TGI (HOP-92 NSCLC) was over 100 µM, the GI50 (SW-620 colon) was over 100 µM and the TGI (SW-620 colon) was over 100 µM. The GI50 (UACC-62 melanoma) was over 100 µM, the TGI (UACC-62 melanoma) was over 100 µM and the GI50 (HCT-116 colon) was over 100 µM. For the same compound, the TGI (HCT-116 colon) was over 100 µM, the GI50 (SN12C renal) was over 100 µM and the TGI (SN12C renal) was over 100 µM. For the same compound, the GI50 (CCRF-CEM leukemia) was over 100 µM, the TGI (CCRF-CEM leukemia) was over 100 µM and the GI50 (SK-MEL-28 melanoma) was over 100 µM. It also gave a TGI (SK-MEL-28 melanoma) of over 100 µM, a GI50 (MCF7 breast) of over 100 µM and a TGI (MCF7 breast) of over 100 µM. It also gave a GI50 (HOP-62 NSCLC) of over 100 µM, a TGI (HOP-62 NSCLC) of over 100 µM and a GI50 (OVCAR-4 ovarian) of over 100 µM. For the same compound, the TGI (OVCAR-4 ovarian) was over 100 µM, the GI50 (SF-268 CNS) was over 100 µM and the TGI (SF-268 CNS) was over 100 µM. It also gave a GI50 (K-562 leukemia) of over 100 µM, a TGI (K-562 leukemia) of over 100 µM and a GI50 (NCI-H23 lung) of over 100 µM. It also gave a TGI (NCI-H23 lung) of over 100 µM, a GI50 (IGROV1 ovarian) of over 100 µM and a TGI (IGROV1 ovarian) of over 100 µM. For the same compound, the GI50 ([…]-0 renal) was over 100 µM, the TGI (786-0 renal) was over 100 µM and the GI50 (LOX IMVI melanoma) was over 100 µM. The TGI (LOX IMVI melanoma) was over 100 µM, the GI50 (NCI/ADR-RES ovarian) was over 100 µM and the TGI (NCI/ADR-RES ovarian) was over 100 µM. The GI50 (HS 578T breast) was over 100 µM, the TGI (HS 578T breast) was over 100 µM and the GI50 (BT-549 breast) was over 100 µM. The TGI (BT-549 breast) was over 100 µM, the GI50 (NCI-H322M lung) was over 100 µM and the TGI (NCI-H322M lung) was over 100 µM. It also gave a GI50 (HCC-2998 colon) of over 100 µM, a TGI (HCC-2998 colon) of over 100 µM and a GI50 (HL-60(TB) leukemia) of over 100 µM. The TGI (HL-60(TB) leukemia) was over 100 µM, the GI50 (MDA-MB-231 breast) was over 100 µM and the TGI (MDA-MB-231 breast) was over 100 µM. For the same compound, the GI50 (OVCAR-5 ovarian) was over 100 µM, the TGI (OVCAR-5 ovarian) was over 100 µM and the GI50 (COLO 205 colon) was over 100 µM. The TGI (COLO 205 colon) was over 100 µM, the GI50 (ACHN renal) was over 100 µM and the TGI (ACHN renal) was over 100 µM. The GI50 (CAKI-1 renal) was over 100 µM, the TGI (CAKI-1 renal) was over 100 µM and the GI50 (RPMI-8226 leukemia) was over 100 µM. For the same compound, the TGI (RPMI-8226 leukemia) was over 100 µM, the GI50 (T-47D breast) was over 100 µM and the TGI (T-47D breast) was over 100 µM. The GI50 (SF-295 CNS) was over 100 µM, the TGI (SF-295 CNS) was over 100 µM and the GI50 (KM12 colon) was over 100 µM. The TGI (KM12 colon) was over 100 µM, the GI50 (U251 glioblastoma) was over 100 µM and the TGI (U251 glioblastoma) was over 100 µM. For the same compound, the GI50 (HCT-15 colon) was over 100 µM, the TGI (HCT-15 colon) was over 100 µM and the GI50 (RXF 393 renal) was over 100 µM. The TGI (RXF 393 renal) was over 100 µM, the GI50 (SR leukemia) was over 100 µM and the TGI (SR leukemia) was over 100 µM. It also gave a GI50 (UACC-257 melanoma) of over 100 µM, a TGI (UACC-257 melanoma) of over 100 µM and a GI50 (SK-OV-3 ovarian) of over 100 µM. It also gave a TGI (SK-OV-3 ovarian) of over 100 µM, a GI50 (OVCAR-8 ovarian) of over 100 µM and a TGI (OVCAR-8 ovarian) of over 100 µM. It also gave a GI50 (SK-MEL-5 melanoma) of over 100 µM, a TGI (SK-MEL-5 melanoma) of over 100 µM and a GI50 (TK-10 renal) of over 100 µM. The TGI (TK-10 renal) was over 100 µM, the GI50 (DU-145 prostate) was over 100 µM and the TGI (DU-145 prostate) was over 100 µM. For the same compound, the GI50 (NCI-H226 lung) was over 100 µM, the TGI (NCI-H226 lung) was over 100 µM and the GI50 (M14 melanoma) was over 100 µM. The TGI (M14 melanoma) was over 100 µM, the GI50 (A498 renal) was over 100 µM and the TGI (A498 renal) was over 100 µM. For the same compound, the GI50 (A549 NSCLC) was over 100 µM, the TGI (A549 NSCLC) was over 100 µM and the GI50 (HT29 colon) was over 100 µM. It also gave a TGI (HT29 colon) of over 100 µM, a GI50 (OVCAR-3 ovarian) of over 100 µM and a TGI (OVCAR-3 ovarian) of over 100 µM. For the same compound, the GI50 (SK-MEL-2 melanoma) was over 100 µM, the TGI (SK-MEL-2 melanoma) was over 100 µM and the GI50 (MALME-3M melanoma) was over 100 µM. It also gave a TGI (MALME-3M melanoma) of over 100 µM.
